Experimental data taken from US8293788B2, “2-phenylpropionic acid derivatives and pharmaceutical compositions containing them” (priority 2004, dated 2012).

Experiments:
[1] = Protein binding in rat plasma (ultrafiltration); format: in vitro ADME; conditions: 37° C.
Method: Protein Binding was determined as follows: Duplicate rat plasma samples of each compound at 50 μg/mL concentration were incubated at 37° C. for 20 minutes under gentle shaking. Then samples were ultrafiltrated through Centrifree® micropartition devices by centrifugation at 1500 g for 15 minutes. The ultrafiltrate was subjected to HPLC-MS/MS quantitative analysis (Column Luna C18, 150×2 mm ID 5 μm (Phenomenex), mobile phase: eluent A) 0.02M HCOO^−NH4^+ (pH 4.3 with HCOOH); eluent B) CH3OH).

[2] = Pharmacokinetic profile in male mice after intravenous and oral administration; format: in vivo; conditions: mouse, plasma; for bioavailability: intravenous and oral administration
Method: The pharmacokinetic profile (t1/2, oral bioavailability, etc) of claimed compounds was evaluated in male mice after intravenous and oral administration. The pharmacokinetic analysis was performed using compounds plasmatic concentrations at different times. The data were evaluated by Kinetica 2000™, Version 3.0 Software [InnaPhase Corporation, World headquarters, 1700 Race Street, Philadelphia, Pa. 19103 USA].

[3] = system: human PMNs chemotaxis induced by IL-8; experiment: IL-8 induced PMN chemotaxis assay; format: cell-based; conditions: compound at 10^−9M, read-out: PMN migration by IL-8 % of inhibition (10^−9M)
Method: (§1) The compounds of the invention of formula (I) were evaluated in vitro for their ability to inhibit chemotaxis of polymorphonucleate leukocytes (hereinafter referred to as PMNs) and monocytes induced by the fractions of IL-8 and GRO-α and C5a. For this purpose, in order to isolate the PMNs from heparinized human blood, taken from healthy adult volunteers, mononucleates were removed by means of sedimentation on dextran (according to the procedure disclosed by W. I. Ming et al., J. Immunol., 138, 1469, 1987) and red blood cells by a hypotonic solution. The cell vitality was calculated by exclusion with Trypan blue, whilst the ratio of the circulating polymorphonucleates was estimated on the cytocentrifugate after staining with Diff Quick.
In the IL-8 induced chemotaxis assay human recombinant IL-8 (Pepro Tech) was used as stimulating agents in the chemotaxis experiments: the lyophilized protein was dissolved in a volume of HBSS containing 0.2% bovin serum albumin (BSA) so thus to obtain a stock solution having a concentration of 10^−5 M to be diluted in HBSS to a concentration of 10^−9 M, for the chemotaxis assays.
(§2) In the chemotaxis experiments, the PMNs were incubated with the compounds of the invention of formula (I) for 15′ at 37° C. in an atmosphere containing 5% CO2.
(§3) During the chemotaxis assay (according to W. Falket et al., J. Immunol. Methods, 33, 239, 1980) PVP-free filters with a porosity of 5 μm and microchambers suitable for replication were used.
(§4) The compounds of the invention in formula (I) were evaluated at a concentration ranging between 10^−6 and 10^−10 M; for this purpose they were added, at the same concentration, both to the lower pores and the upper pores of the microchamber. Evaluation of the ability of the compounds of the invention of formula (I) to inhibit the chemotaxis of human monocytes was carried out according to the method disclosed by Van Damme J. et al. (Eur. J. Immunol., 19, 2367, 1989).

[4] = system: GRO-α induced PMN chemotaxis; experiment: GRO-α induced PMN chemotaxis assay; format: cell-based; conditions: human PMNs; for inhibition at 0.01 µM: compound at 10^−8M, read-out: PMN migration by GROα % of inhibition (10^−8M); for PMN migration by GROα % of inhibition: tested at 10^−6M
Method: as §1
GRO-α induced chemotaxis inhibition was evaluated in an analogous assay.
as §2, §3, §4

[5] = system: C5a induced PMNs chemotaxis; experiment: C5a induced PMN chemotaxis assay; format: cell-based; conditions: human PMNs; for PMN migration by C5a % of inhibition: tested at 10^−6M; for inhibition at 0.01 µM: compound at 10^−8M, read-out: PMN migration by C5a % of inhibition (10^−8M)
Method: as §1
In the C5a induced chemotaxis essay the fractions hrC5a and hrC5a-desArg (Sigma) were used as stimulating agents in chemotaxis experiments, obtaining practically identical results, Lyophilized C5a was dissolved in a volume of HBSS containing 0.2% BSA so as to obtain a stock solution having a concentration of 10^−5 M, to be diluted in HBSS to a concentration of 10^−9 M, for the chemotaxis assays.
as §2
The chemotactic activity of the C5a was evaluated on human circulating polymorphonucleates (PMNs) resuspended in HBSS at a concentration of 1.5×10^6 PMNs per ml.
as §3, §4

fraction unbound at 20 min, 50 μg/mL [1] | half-life [2] [h] | bioavailability [2] [%] | SMILES | inhibition at 0.001 µM [3] [%] | inhibition at 0.01 µM [4] [%] | PMN migration by C5a % of inhibition [5] | PMN migration by GROα % of inhibition [4] | inhibition at 0.01 µM [5] [%]
0.15 | 1.7 | 30 | CC(C)Cc1ccc([C@@H](C)C(=O)NCCCN2CCCCC2)cc1 [reference compound] | 44 ± 5 | 39 ± 10 |  |  | 55 ± 6
0.016 | 0.4 | 35 | CC(C)Cc1ccc([C@@H](C)C(N)=O)cc1 [reference compound] | 57 ± 12 | 10 ± 7 | Inactive^# |  | 

Continued, molecule first:

SMILES | fraction unbound at 20 min, 50 μg/mL [1] | half-life [2] [h] | bioavailability [2] [%] | inhibition at 0.001 µM [3] [%] | inhibition at 0.01 µM [4] [%] | PMN migration by C5a % of inhibition [5] | PMN migration by GROα % of inhibition [4] | inhibition at 0.01 µM [5] [%]
C[C@@H](C(=O)[N-]S(C)(=O)=O)c1ccc(OS(=O)(=O)C(F)(F)F)cc1.[Na+] | 0.01 | 24.7 | ~100 | 58 ± 9 | 61 ± 6 | Inactive^# |  | 
C[C@@H](C(=O)NCCN1CCCC1)c1ccc(OS(=O)(=O)C(F)(F)F)cc1.Cl | 0.296 | 3.4 | 80 | 52 ± 12 |  |  | Inactive^# | 65 ± 18
C[C@@H](C(=O)NCCCN1CCCC1)c1ccc(OS(=O)(=O)C(F)(F)F)cc1.Cl | 0.359 | 2.4 | 90 | 51 ± 13 |  |  | Inactive^# | 67 ± 10
C[C@@H](C(N)=O)c1ccc(OS(=O)(=O)C(F)(F)F)cc1 | 0.062 | 2.3 | 95 | 64 ± 2 | 61 ± 3 | Inactive^# |  | 
CC(C)Cc1ccc([C@@H](C)C(=O)NS(C)(=O)=O)cc1 [reference compound] | 0.0002 | 0.4 | 80 | 50 ± 12 | 10 ± 18 | Inactive^# |  | 
